Data: patent publication US20080015237A1 (ASTRAZENECA AB, priority 2006, published 2008)

Target: human Kv1.5 channel (Homo sapiens, UniProt P22460)
Test: Test A: Rb+ efflux assay
Type: cell-based
Conditions: CHO cells stably transfected with cDNA for human Kv1.5
Protocol: This assay identifies compounds that block the human Kv1.5 channel potassium channel heterologously expressed in Chinese Hamster Ovary (CHO) cells by means of Rb+ ion efflux using Flame Atomic Absorption Spectroscopy. For experimental studies, CHO cells stably transfected with cDNA for human Kv1.5 were grown as confluent layers in Falcon, 384-well tissue culture-treated black-walled clear-bottomed plates and the plates were incubated overnight at 37° C. in a cell culture incubator.
After incubating overnight the cell plates were washed and a buffer containing Rb+ ions were added to the cell plates. The plates were then incubated for another 3-4 hours in a CO2-incubator (37° C.). Following this incubation period plates were washed, compounds were added and subsequently a buffer containing elevated K+ concentrations were added in order to activate the Kv1.5 channel. Following a short incubation time, aliquots of the supernatants were transferred to supernatant plates for subsequent determination of the Rb+ content using Atomic Absorption Spectrometry (ICR8000 instrument, Aurora Biomed Inc.).

human Kv1.5 channel, sequence (P22460 whole entry): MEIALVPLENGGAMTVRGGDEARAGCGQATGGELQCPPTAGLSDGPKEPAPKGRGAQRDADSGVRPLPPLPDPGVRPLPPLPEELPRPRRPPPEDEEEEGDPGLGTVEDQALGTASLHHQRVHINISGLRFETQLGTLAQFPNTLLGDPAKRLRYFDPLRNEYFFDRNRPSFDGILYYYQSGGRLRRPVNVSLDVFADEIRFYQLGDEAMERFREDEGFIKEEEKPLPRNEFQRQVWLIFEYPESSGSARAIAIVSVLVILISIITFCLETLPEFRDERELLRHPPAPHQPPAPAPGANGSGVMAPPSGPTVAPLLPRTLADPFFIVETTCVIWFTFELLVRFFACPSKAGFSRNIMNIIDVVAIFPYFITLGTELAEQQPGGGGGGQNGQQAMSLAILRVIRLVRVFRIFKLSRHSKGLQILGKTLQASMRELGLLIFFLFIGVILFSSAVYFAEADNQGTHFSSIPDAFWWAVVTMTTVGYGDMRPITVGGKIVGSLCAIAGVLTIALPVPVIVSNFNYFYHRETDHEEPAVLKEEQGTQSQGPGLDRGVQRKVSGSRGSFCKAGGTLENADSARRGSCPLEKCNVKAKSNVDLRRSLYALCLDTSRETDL

Compared with `CC(C)(C)NC(=O)C1c2ccccc2C(=O)N1Cc1ccccc1-c1ccc(F)c(F)c1` (single isomer, unassigned) [(1R or 1S)-N-(tert-butyl)-2-[(3′,4′-difluorobiphenyl-2-yl)methyl]-3-oxoisoindoline-1-carboxamide], `CC(C)(C)NC(=O)C1c2cc(F)ccc2C(=O)N1Cc1ccccc1-c1ccccc1` (stereo not shown) [2-(biphenyl-2-ylmethyl)-N-(tert-butyl)-6-fluoro-3-oxoisoindoline-1-carboxamide] is 1.9-fold lower in IC50: 13000 nM for the first, 6700 nM for the second. The second is the more potent here.

`CC(CN1C(=O)c2ccccc2C1C(=O)NCc1ccc2c(c1)OC(F)(F)O2)c1ccc(Cl)cc1` (stereo not shown) [2-[2-(4-chlorophenyl)propyl]-N-[(2,2-difluoro-1,3-benzodioxol-5-yl)methyl]-3-oxoisoindoline-1-carboxamide] and `CC(CN1C(=O)c2ccccc2C1C(=O)NCc1ccc(C(F)(F)F)nc1)c1ccc(Cl)cc1` (stereo not shown) [2-[2-(4-chlorophenyl)propyl]-3-oxo-N-{[6-(trifluoromethyl)pyridin-3-yl]methyl}isoindoline-1-carboxamide] are within 1.5-fold of each other in IC50: 580 nM for the first, 780 nM for the second.

Compared with `O=C(NCc1ccccc1)C1c2ccccc2C(=O)N1Cc1ccccc1-c1ccccc1` (stereo not shown) [N-benzyl-2-(biphenyl-2-ylmethyl)-3-oxoisoindoline-1-carboxamide], `O=C(NCc1ccccc1)C1c2cc(Cl)ccc2C(=O)N1Cc1ccccc1-c1ccccc1` (stereo not shown) [N-benzyl-2-(biphenyl-2-ylmethyl)-6-chloro-3-oxoisoindoline-1-carboxamide] is 2.4-fold lower in IC50: 1000 nM for the first, 420 nM for the second.

`Cc1c(OCF)ccc2c1C(=O)N(Cc1ccccc1-c1ccccc1)C2C(=O)NC(C)(C)C` (stereo not shown) [2-(biphenyl-2-ylmethyl)-N-(tert-butyl)-5-(fluoromethoxy)-4-methyl-3-oxoisoindoline-1-carboxamide] and `COc1ccc2c(c1C)C(=O)N(Cc1ccccc1-c1ccccc1)C2C(=O)NC(C)(C)C` (stereo not shown) [2-(biphenyl-2-ylmethyl)-N-(tert-butyl)-5-methoxy-4-methyl-3-oxoisoindoline-1-carboxamide] are within 1.5-fold of each other in IC50: 1700 nM for the first, 2200 nM for the second.

Going from `O=C(NCc1ccc(C(F)(F)F)nc1)C1c2cc(Cl)ccc2C(=O)N1Cc1ccccc1-c1ccccc1` (stereo not shown) [2-(biphenyl-2-ylmethyl)-6-chloro-3-oxo-N-{[6-(trifluoromethyl)pyridin-3-yl]methyl}isoindoline-1-carboxamide] to `O=C(NCCCC(F)(F)F)C1c2cc(Cl)ccc2C(=O)N1Cc1ccccc1-c1ccccc1` (stereo not shown) [2-(biphenyl-2-ylmethyl)-6-chloro-3-oxo-N-(4,4,4-trifluorobutyl)isoindoline-1-carboxamide], the IC50 falls from 1500 nM to 610 nM (2.5-fold).

Compared with `CC(C)(C)NC(=O)C1c2ccccc2C(=O)N1Cc1cc(F)ccc1-c1ccc(F)cc1` (stereo not shown) [N-(tert-butyl)-2-[(4,4′-difluorobiphenyl-2-yl)methyl]-3-oxoisoindoline-1-carboxamide], `CC(C)(C)NC(=O)C1c2ccccc2C(=O)N1Cc1ccc(F)cc1-c1ccc(F)cc1` (stereo not shown) [N-(tert-butyl)-2-[(4′,5-difluorobiphenyl-2-yl)methyl]-3-oxoisoindoline-1-carboxamide] is 1.7-fold higher in IC50: 5600 nM for the first, 9300 nM for the second. The first is the more potent here.

Going from `C[C@H](c1ccccc1)N1C(=O)c2ccc(F)cc2C1C(=O)NCc1ccccc1` (stereo partly drawn) [N-benzyl-6-fluoro-3-oxo-2-[(1R)-1-phenylethyl]isoindoline-1-carboxamide] to `C[C@H](c1ccccc1)N1C(=O)c2ccc(Br)cc2C1C(=O)NCc1ccccc1` (stereo partly drawn) [N-benzyl-6-bromo-3-oxo-2-[(1R)-1-phenylethyl]isoindoline-1-carboxamide], the IC50 falls from 1300 nM to 210 nM (6.2-fold). The second is the more potent here.

`C[C@H](c1ccccc1)N1C(=O)c2ccc(Cl)cc2C1C(=O)NCCCC(F)(F)F` (stereo partly drawn) [6-chloro-3-oxo-2-[(1R)-1-phenylethyl]-N-(4,4,4-trifluorobutyl)isoindoline-1-carboxamide] and `O=C(NCCCC(F)(F)F)C1c2ccccc2C(=O)N1Cc1ccccc1-c1ccccc1` (stereo not shown) [2-(biphenyl-2-ylmethyl)-3-oxo-N-(4,4,4-trifluorobutyl)isoindoline-1-carboxamide] are within 1.5-fold of each other in IC50: 2000 nM for the first, 1500 nM for the second.

First: CC(C)(CO)CN1C(=O)c2ccc(Cl)cc2C1C(=O)NCc1cccc(OC(F)F)c1 (stereo not shown) [6-chloro-N-[3-(difluoromethoxy)benzyl]-2-(3-hydroxy-2,2-dimethylpropyl)-3-oxoisoindoline-1-carboxamide]
Second: CC(C)(C)CN1C(=O)c2ccccc2C1C(=O)NCc1cccc(Cl)c1 (stereo not shown) [N-(3-chlorobenzyl)-2-(2,2-dimethylpropyl)-3-oxoisoindoline-1-carboxamide]
The IC50 of the first is 7.1-fold lower: 410 nM for the first, 2900 nM for the second.

Going from `CC(C)(C)NC(=O)C1c2ccccc2C(=O)N1Cc1cc(F)ccc1-c1ccccc1` (stereo not shown) [N-(tert-butyl)-2-[(4-fluorobiphenyl-2-yl)methyl]-3-oxoisoindoline-1-carboxamide] to `CC(C)(C)NC(=O)C1c2ccccc2C(=O)N1Cc1ccc(F)cc1-c1ccccc1` (stereo not shown) [N-(tert-butyl)-2-[(5-fluorobiphenyl-2-yl)methyl]-3-oxoisoindoline-1-carboxamide], the IC50 rises from 5200 nM to 13000 nM (2.5-fold).

Compared with `CCCCNC(=O)C1c2ccccc2C(=O)N1CC(C)(C)c1ccc(Cl)cc1` (stereo not shown) [N-butyl-2-[2-(4-chlorophenyl)-2-methyl-propyl]-3-oxo-1H-isoindole-1-carboxamide], `CCCNC(=O)C1c2ccccc2C(=O)N1CC(C)c1ccc(Cl)cc1` (stereo not shown) [2-[2-(4-chlorophenyl)propyl]-3-oxo-N-propylisoindoline-1-carboxamide] is 2.5-fold higher in IC50: 530 nM for the first, 1300 nM for the second. The first is the more potent here.

Compared with `CCCCNC(=O)C1c2cc(F)ccc2C(=O)N1CC(C)c1ccc(Cl)cc1` (single isomer, unassigned) [(1R or 1S)-N-butyl-2-[(2S or 2R)-2-(4-chlorophenyl)propyl]-6-fluoro-3-oxoisoindoline-1-carboxamide], `CC(CN1C(=O)c2ccc(Cl)cc2C1C(=O)NCc1ccc(S(C)(=O)=O)cc1)c1ccc(Cl)cc1` (stereo not shown) [6-chloro-2-[2-(4-chlorophenyl)propyl]-N-[4-(methylsulfonyl)benzyl]-3-oxoisoindoline-1-carboxamide] is 1.6-fold higher in IC50: 1700 nM for the first, 2800 nM for the second. The first is the more potent here.

First: CC(CN1C(=O)c2ccccc2C1C(=O)NCc1ccc(C#N)cc1)c1ccc(Cl)cc1 (stereo not shown) [2-[2-(4-chlorophenyl)propyl]-N-(4-cyanobenzyl)-3-oxoisoindoline-1-carboxamide]
Second: COc1ccc2c(c1)C(=O)N(CC(C)c1ccc(Cl)cc1)C2C(=O)NCc1ccccc1 (stereo not shown) [N-benzyl-2-[2-(4-chlorophenyl)propyl]-5-methoxy-3-oxoisoindoline-1-carboxamide]
The IC50 of the first is 1.7-fold higher: 1200 nM for the first, 710 nM for the second.

Compared with `CC(C)(C)NC(=O)C1c2ccccc2C(=O)N1Cc1ccccc1-c1ccc(F)c(F)c1` (single isomer, unassigned) [(1S or 1R)-N-(tert-butyl)-2-[(3′,4′-difluorobiphenyl-2-yl)methyl]-3-oxoisoindoline-1-carboxamide], `CC(C)(C)NC(=O)C1c2cc(Br)ccc2C(=O)N1Cc1ccccc1-c1ccccc1` (stereo not shown) [2-(biphenyl-2-ylmethyl)-6-bromo-N-(tert-butyl)-3-oxoisoindoline-1-carboxamide] is 2.3-fold lower in IC50: 5500 nM for the first, 2400 nM for the second.

Going from `CCC(c1ccccc1)N1C(=O)c2ccccc2C1C(=O)NCc1ccccc1` (stereo not shown) [N-benzyl-3-oxo-2-(1-phenylpropyl)isoindoline-1-carboxamide] to `CC(c1ccccc1)N1C(=O)c2ccccc2C1C(=O)NCc1ccccc1` (stereo not shown) [N-benzyl-3-oxo-2-(1-phenylethyl)isoindoline-1-carboxamide], the IC50 rises from 400 nM to 6000 nM (15-fold).

`CCCCNC(=O)C1c2cc(F)ccc2C(=O)N1CC(C)c1ccc(Cl)cc1` (single isomer, unassigned) [(1R or 1S)-N-butyl-2-[(2R or 2S)-2-(4-chlorophenyl)propyl]-6-fluoro-3-oxoisoindoline-1-carboxamide] and `COc1cc2c(cc1OC)C(C(=O)NCc1ccccc1)N(CC(C)c1ccc(Cl)cc1)C2=O` (stereo not shown) [N-benzyl-2-[2-(4-chlorophenyl)propyl]-5,6-dimethoxy-3-oxoisoindoline-1-carboxamide] are within 1.5-fold of each other in IC50: 500 nM for the first, 740 nM for the second.

Going from `O=C(NCc1ccccc1)C1c2ccccc2C(=O)N1CCc1ccc(Cl)cc1` (stereo not shown) [N-benzyl-2-[2-(4-chlorophenyl)ethyl]-3-oxoisoindoline-1-carboxamide] to `N#Cc1ccc(CNC(=O)C2c3ccccc3C(=O)N2Cc2ccccc2-c2ccccc2)cc1` (stereo not shown) [2-(biphenyl-2-ylmethyl)-N-(4-cyanobenzyl)-3-oxoisoindoline-1-carboxamide], the IC50 rises from 560 nM to 2800 nM (5-fold).

Compared with `CCCNC(=O)C1c2cc(Cl)ccc2C(=O)N1Cc1ccccc1-c1ccccc1` (stereo not shown) [2-(biphenyl-2-ylmethyl)-6-chloro-3-oxo-N-propylisoindoline-1-carboxamide], `CC(C)(C)NC(=O)C1c2c(O)cccc2C(=O)N1Cc1ccccc1-c1ccccc1` (stereo not shown) [2-(biphenyl-2-ylmethyl)-N-(tert-butyl)-7-hydroxy-3-oxoisoindoline-1-carboxamide] is 2.7-fold higher in IC50: 1100 nM for the first, 3000 nM for the second.

`CC(C)(C)NC(=O)C1c2cc(Cl)ccc2C(=O)N1C(c1ccccc1)c1ccccc1` (stereo not shown) [N-(tert-butyl)-6-chloro-2-(diphenylmethyl)-3-oxoisoindoline-1-carboxamide] and `CC(c1ccccc1)N1C(=O)c2ccccc2C1C(=O)NCc1cccc(OC(F)F)c1` (stereo not shown) [N-[3-(difluoromethoxy)benzyl]-3-oxo-2-(1-phenylethyl)isoindoline-1-carboxamide] are within 1.5-fold of each other in IC50: 2800 nM for the first, 2400 nM for the second.

`CC(C)(C)NC(=O)C1c2ccccc2C(=O)N1Cc1ccccc1C(F)(F)F` (stereo not shown) [N-(tert-butyl)-3-oxo-2-[2-(trifluoromethyl)benzyl]isoindoline-1-carboxamide] and `O=C(NCc1ccc(F)cc1)C1c2ccccc2C(=O)N1C(c1ccncc1)c1ccc(Cl)cc1` (stereo not shown) [2-[(4-chlorophenyl)(pyridin-4-yl)methyl]-N-(4-fluorobenzyl)-3-oxoisoindoline-1-carboxamide] are within 1.5-fold of each other in IC50: 1900 nM for the first, 2100 nM for the second.
